In US11452705B2, “Oral drug delivery composition containing oxaliplatin and method for preparing same” (ICURE BNP CO., LTD., priority 2017, dated 2022):

How the values were obtained:
[1] = Artificial intestinal membrane permeability (PAMPA); assay type: in vitro ADME; conditions: aqueous solution (control), PBS pH 6.8, 5 hours, room temperature
Description: Then, 200 μL was added to the donor of each well of the PAMPA plate, and 300 μL of buffer (PBS, pH 6.8) was added to each well of the receptor plate. The plate assembly was set by coupling the donor plate with the receiver plate. After 5 hours at room temperature, samples were withdrawn from donors and receptors in each well of the PAMPA plate, and the concentration was measured as follows.
The mobile phase consisted of water (pH 3.0 adjusted with phosphoric acid)-acetonitrile (99:1, v/v) and was run at a flow rate of 0.8 mL/min.
For 5-FU, injected into an HPLC system equipped with a C18 column (4.6×250 mm, 5 μm, 100 Δ; 20 μL injection), and were chromatographed using an isocratic mobile phase of deionized water (pH 3.2 adjusted with phosphoric acid) at a flow rate of 0.8 mL/min. The UV detection was carried out at 260 nm.
Effective permeability (Pe) of each drug was calculated using the following formula. Pe=−ln[1−CA(t)/Cequilibrium]/[A(1/VD+1/VA)×t]
(Pe: permeability (cm/s); A: Effective filter area (f×0.3 cm^2; f: Porosity of the filter (f=0.76)); VD: volume of the donor well (0.2 mL); VA: volume of Receptor well (0.3 mL); t: the total time of incubation in seconds (s); CA(t): concentration of drug in the receptor well at time t; Cequilibrium: [CD(t)×VD+CA(t)×VA]/(VD+VA); CD(t): concentration of residual drug in donor at time t)

[2] = In vivo oral absorption in rats, plasma OXA (Pt by AAS); conditions: rat
Description: (§1) After oral and intravenous administration, 200 μL of blood was collected from a capillary in the retro-orbital plexus at different time intervals and directly mixed with 50 μL of sodium citrate (3.8% solution). Blood samples were then immediately centrifuged (2,500×g, 15 minutes, 4° C.). The plasma samples were isolated and kept frozen at −70° C. until analysis.
Before analysis, the sample was diluted with 10 mL of 3% nitric acid solution and then injected into the furnace for AAS analysis. All measurements were carried out using a Thermo Scientific iCE 3500 AAS (Thermo Fisher Scientific) equipped with a GFS35 graphite furnace and a GFS35Z autosampler. Argon was used as the purging gas at 200 mL/min, and the injection volume of the sample was 20 μL. The spectrometer was provided with a Zeeman-based background corrector, and the […].

[3] = In vitro intestinal cell membrane permeability across Caco-2 cell monolayer; assay type: in vitro ADME; conditions: human, Solution in HBSS (control), apical to basolateral, 37° C., read-out: Apparent permeability (Papp)
Description: Caco-2 cells were seeded onto each well of 12-well Transwell® filter insert (pore size: 0.4 μm, surface area: 1.12 cm^2; Corning, N.Y., USA) at a density of 3×10^5 cells/well. Dulbecco's modified Eagle's medium (DMEM; Lonza, Basel, Switzerland) medium containing 10% fetal bovine serum (FBS; Gibco, Thermo Fisher Scientific) and 1% penicillin/streptomycin (Gibco) was changed every 48 hours for 21 to 29 days, and Caco-2 cell monolayers with a transepithelial electrical resistance (TEER) of >350 Ω·cm^2 were used for in vitro intestinal membrane permeability experiments.
First, the culture medium was removed and the monolayer was pre-incubated with 0.5 mL of Hanks' balanced salt solution (HBSS) for 20 min at 37° C. […] After processing the sample, 100-μL samples were taken from the basolateral compartment at 0.5, 1, 2, 3, 4, and 5 h. The samples were filtered through a membrane filter.

[4] = tested on: CT26 mouse colon tumor cells; test: In vivo tumor growth inhibition, CT26 tumor-bearing mice; parameters: species or system BALB/c mice
Description: The CT26 mouse colon tumor cells were subcutaneously grafted into the flanks of BALB/c mice at a concentration of 1×10^6 cells/100 μL of PBS (pH 7.4). […] During 18-day treatment, mice were fasted for 4 h before oral administration and 2 h after administration. Tumors were measured every three days in two dimensions using a caliper, and tumor volumes were calculated as a^2×b×0.52, where a=width and b=length. Body weight was also measured.
At 18 days after administration, the isolated tumors masses were measured, and tumor tissues were fixed in 10% formalin for histological evaluation. Staining with proliferating cell nuclear antigen (PCNA) for cell proliferation and fluorescent terminal deoxynucleotidyl transferase-mediated dUPT nick end labeling (TUNEL) for apoptosis were carried out.

[5] = Drug release (dissolution) test, USP type 1 apparatus (basket); assay type: physicochemical; conditions: pH 1.2, within 15 min
Description: Dissolution tests were performed in 500 mL of medium containint 0.1 N HCl solution (pH 1.2) or phosphate buffer (pH 6.8) at 37±0.2° C., using the USP type 1 apparatus (basket) rotating at 100 rpm.
Each capsule was subjected to a dissolution test, and 1-mL samples were withdrawn at 15, 30, 45, 60, 90, and 120 min. After filtration, the amount of drug released was quantified by the HPLC using a UV detector, as in Example 7, and the results are shown in FIG. 6.

[6] = In vivo oral absorption in rats, plasma 5-FU (HPLC); conditions: rat
Description: as §1
To determine the plasma concentration of 5-FU, 100 μL of each standard and plasma samples were diluted with 50 μL of 20 μg/mL internal standard (IS, chlorouracil) and 100 μL of saturated ammonium sulfate solution. After vortexing for 1 min, the diluted plasma sample was extracted with a 2-mL solvent mixture of propanol and diethylether (80:20, v/v). The mixture was then centrifuged at 2,500×g for 10 min and the collected organic phase was evaporated under nitrogen at 37° C. The dried residues were reconstituted with 100 μL of mobile phase for HPLC analysis (ammonium phosphate buffer with pH 6.8/methanol, 98:2, v/v), followed by vortexing, and then determined by HPLC with a C8 column (4.6×250 mm, 5 μm) at a flow rate of 1 mL/min mobile phase. A 50-μL sample was injected and 5-FU was measured at 260 nm.

## O=C([O-])C(=O)[O-].[NH-][C@@H]1CCCC[C@H]1[NH-].[Pt+4] (relative stereo) [OXA, cis-[(1R,2R)-1,2-cyclohexanediamine-N,N′][oxalato(2-)-O,O′]platinum]
[1]
  Effective permeability (Pe): 0.54±0.12 ×10^−6 cm/s
[2]; intravenous, OXA 5 mg/kg
  AUCinf: 2537 ± 1312 ng·h/mL
  AUClast: 1962 ± 746 ng·h/mL
  Cmax: 2454 ± 990 ng/mL
  T1/2: 186.2 ± 126.8 min
[2]; intravenous, OXA 5 mg/kg (reference)
  Bioavailability: 100%
[2]; oral, OXA 10 mg/kg
  AUCinf: 170 ± 61 ng·h/mL
  AUClast: 111 ± 95 ng·h/mL
  Bioavailability: 2.824 ± 2.428%
  Cmax: 32 ± 14 ng/mL
  T1/2: 91.68 ± 54 min
  Tmax: 110 ± 17.3 min

## O=c1[nH]cc(F)c(=O)[nH]1 [Composition 5-FU, 5-fluorouracil]
[1]
  Effective permeability (Pe): 1.27±0.46 ×10^−6 cm/s
[3]
  Papp A→B at 5 h, 384.4 μM: 3.46 ± 1.22 ×10⁻⁶ cm/s
[4]; once daily oral 10 mg/kg 5-FU in water
  Effect of inhibiting tumor growth compared with the group administered orally with the OXA/DCK aqueous solution: did not show a significant difference
[4]; once daily oral, 18-day treatment, 10 mg/kg OXA and/or 10 mg/kg 5-FU
  Inhibition of tumor growth (tumor volume) compared to the control: 57.9%
[5]
  Drug released from the nanoemulsions: at least 85%
[6]; plasma, oral, 5-FU 20 mg/kg
  half-life: 48.8 ± 34 min
[6]; intravenous, 5-FU 5 mg/kg
  AUCinf: 670 ± 221 ng·h/mL
  AUClast: 657 ± 220 ng·h/mL
  Cmax: 716 ± 124 ng/mL
  T1/2: 45.6 ± 6.54 min
[6]; intravenous, 5-FU 5 mg/kg (reference)
  Bioavailability: 100%
[6]; oral, 5-FU 20 mg/kg
  AUCinf: 287 ± 96 ng·h/mL
  AUClast: 242 ± 58 ng·h/mL
  Bioavailability: 9.218 ± 2.198%
  Cmax: 92 ± 8 ng/mL
  Tmax: 30 ± 0 min
